Results on two compounds are retold here after patent US8216782B2, “PTTG1 as a biomarker for cancer treatment” (Cedars-Sinai Medical Center, priority 2008, dated 2012).

The test system of test [1] is HCT116 PTTG1−/− cells. In words: Anchorage-dependent colony formation assay. It counts as cell-based. The note with it: PTTG1−/− colonies, 0.16 μM doxorubicin. As for the experimental part:
(§1) Briefly, 20,000 cells were plated in a six-well culture dish, allowed to attach overnight and treated with depicted drug concentrations. Cells were cultured in standard culture medium containing indicated treatments for twelve days and medium re-freshened every three days. Colonies were stained with 0.5% crystal violet in methanol/acetic acid (3:1) and those composed of >50 cells were counted.

For test [2], the system named is HCT116 WT cells. Description: Anchorage-dependent colony formation assay. In kind it is cell-based. Particulars: 0.16 μM doxorubicin. As for the experimental part: as §1
Test [3] deals with PTTG1. Description: Western blot of PTTG1 phosphorylation after DNA damage. In kind it is cell-based. The note with it: 24 hours, 5 μM doxorubicin. From the text: (§2) FIG. 6 depicts PTTG1 and DNA damage pathway, in accordance with an embodiment of the present invention. […] (B) Aurora Kinase A activity was less inhibited after DNA damage treatment in PTTG1^−/− cells. Lane C1, positive control with Aurora Kinase A; lane C2, negative control without Aurora Kinase A; lane WT, Aurora Kinase A co-immunoprecipitated from HCT116 WT cells after doxorubicin treatment; Lane −/−, Aurora Kinase A immunoprecipitated from HCT116 PTTG1^−/− cells after doxorubicin treatment. Aurora Kinase A activity is higher in PTTG1^−/− than WT HCT116 cells. (C) C, PTTG1 WT plasmid; M3, PTTG1 S165A mutation; M9, PTTG1 S181A mutation. Plasmids were transfected into HCT116 PTTG1^−/− cells and treated with proteosome inhibitor LLnL to enrich phosphorylated PTTG1. Arrow depicts the major band. […] (D) WT, PTTG1 WT plasmid; M9, PTTG1 S181A mutation were transfected into HCT116 PTTG1^−/− and co-immunoprecipitation performed. […] (E) Proposed signaling pathway for PTTG1 action in G2 DNA damage checkpoint.
(A western blot detects proteins with antibodies after separation by electrophoresis.)

Test [4] relates to HCT116 PTTG1−/− cells. In words: WST-1 cell proliferation assay. In kind it is cell-based. As for the experimental part:
(§3) FIG. 4 depicts that PTTG1 regulates cell response to Aurora Kinase inhibition, in accordance with an embodiment of the present invention. (A) PTTG1^−/− cell proliferation was attenuated in response to Aurora Kinase A siRNA (mean±S.D., n=3. P<0.05 vs WT). Cells were seeded into 96-well plates, cultured overnight, and then transfected with siRNAs (100 nM). After 72 hours, premixed WST-1 cell proliferation reagent (10 ul) was added to each well. Cells were incubated for a further four hours and shaken thoroughly for one minute before measurement. […] Cells were seeded into 96-well plates, cultured overnight, and then treated with drug as indicated for 48 hours. Viable cells were measured using Premixed WST-1 cell proliferation reagent. (C) Anchorage-dependent colony formation assay was performed as described herein. […] (mean±S.D., n=3. P<0.05 vs WT) (D) Western blot showing that over-expressed PTTG1 rescued PTTG1^−/− sensitivity to Aurora Kinase inhibitor III (12.5 uM) (mean±S.D., n=3. P>0.05 vs WT); PTTG1 knock-down enhanced WT cell sensitivity to Aurora Kinase inhibitor III (12.5 uM) (mean±S.D., n=3. P>0.05 vs PTTG1^−/−). PTTG1^−/−=PTTG1-null or KO cells.
(§4) Cell proliferation was evaluated using WST-1 cell proliferation reagent (obtained from Clontech Laboratories, Inc.; Mountain View, Calif.). Briefly, 90 μl cells were seeded into 96-well plates and cultured overnight, treated with drugs for 48 hours, and 10 μl premixed WST-1 cell proliferation reagent added. Cells were incubated for a further four hours, shaken and absorbance measured at 450 nm using a Victor 3 multiwell plate reader (obtained from PerkinElmer, Inc.; Waltham, Mass.). Cell viability rate was calculated for each well as A450 treated cells/A450 control cells×100% (A450: OD value at 450 nm).
In general terms: Tetrazolium assays rely on reduction of a dye to a coloured formazan, in cell work by metabolically active cells.

In test [5] the test system is HCT116 WT cells. In words: WST-1 cell proliferation assay. The note with it: Homo sapiens, HCT-116, 48 h, read-out: cells remaining viable. In kind it is cell-based. As for the experimental part:
as §3, §4

The test system of test [6] is Aurora Kinase A. Description: Kinase activity of Aurora Kinase A immunoprecipitated from treated HCT116 cells. It counts as cell-based. The note with it: PTTG1−/− vs WT HCT116 cells.
From the text: as §2
Aurora Kinase A activity is inhibited by DNA damage (Krystyniak et al., 2006). The inventors therefore tested Aurora Kinase A activity in HCT116 WT and PTTG1^−/− cells after treatment with doxorubicin. […] Phosphorylated PTTG1 may therefore act with Aurora Kinase A and play a role in the DNA damage-induced G2 checkpoint. […]

For test [7], the system named is HCT116 cells. Description: Apoptosis by Tunel assay and activated caspase 3 levels. It counts as cell-based.
The subject of test [8] is HCT116 PTTG1−/− cells. Description: β-galactosidase staining (senescence). In kind it is cell-based. The note with it: 0.313 uM, 48 hrs. From the text: (§5) Cells were fixed and stained with β-galactosidase staining kit (Sigma).
In test [9] the test system is HCT116 WT cells. In words: β-galactosidase staining (senescence). The note with it: 0.313 uM, 48 hrs. In kind it is cell-based.
From the text: as §5

The test system of test [10] is p21. In words: p21 expression after treatment. It counts as cell-based. Particulars: WT and PTTG1−/− cells. The source says:
FIG. 10 depicts P21 level is higher in PTTG1^−/− cells than WT. P21 induces senescence.

Test [11] concerns PTTG1−/− HCT116 tumors. In words: Subcutaneous tumor implant in nude mice. Particulars: 50 mg/kg, 17 days.
Procedure: Tumor volume was measured twice a week. Mice were sacrificed at day 18 and tumors were collected and weighted.
The subject of test [12] is WT HCT116 tumors. Description: Subcutaneous tumor implant in nude mice. The note with it: 50 mg/kg, 17 days. It counts as in vivo. As for the experimental part: Tumor volume was measured twice a week.

“Also recorded” adds a separate entry of the source.

As to `COc1cccc2c1C(=O)c1c(O)c3c(c(O)c1C2=O)C[C@@](O)(C(=O)CO)C[C@@H]3O[C@H]1C[C@H](N)[C@H](O)[C@H](C)O1` [doxorubicin], the colonies survived was determined as 36% in test [1] and 74% in [2]. Moreover, in test [3], the “phosphorylated PTTG1” value is given as “Increased phosphorylated PTTG1”. The viability at 1.25 µM in test [4] (Homo sapiens, HCT-116, 48 h, read-out: cells remaining viable) amounted to 27%; in [5] it was 55%. Moreover, the “sensitivity of PTTG1−/− cell growth versus WT (WST-1)” value in [4] (PTTG1−/− vs WT HCT116 cells) is on record as “more sensitive”. Besides, in [6], the “Aurora Kinase A activity after doxorubicin treatment” value is listed as “less suppressed in PTTG1^−/− than WT cells”.
With `O=C(CCCCCCC(=O)Nc1ccccc1)NO` [SAHA, suberoylanilide hydroxamic acid], the apoptosis result in test [7] is recorded as “did not cause apoptosis”. Further, the “senescent cells (β-galactosidase staining)” value in [8] is listed as 43%; in [9], 7%. In [10], the p21 expression result is “enhanced p21 expression”. The tumor growth result in test [11] was “significantly inhibited”; in [12], “did not show any difference between control and treated group; also recorded: had no effect”.
